Experiments:
Test in all cases: KINOMEscan
Assay type in all cases: binding
Details in all cases: 1 μM
[1] = molecular target: FES (Homo sapiens, UniProt P07332)
[2] = molecular target: VRK2 (Homo sapiens, UniProt Q86Y07)
[3] = molecular target: T1, NEK5 (Homo sapiens, UniProt Q6P3R8)
T1 construct: purchased Eurofins DiscoverX Corporation

[4] = molecular target: WEE2 (Homo sapiens, UniProt P0C1S8)
[5] = molecular target: SRPK3 (Homo sapiens, UniProt Q9UPE1)
[6] = molecular target: T2, MEK4 (Homo sapiens, UniProt P45985)
T2 construct: purchased Eurofins DiscoverX Corporation
T2 sequence (P45985 whole entry): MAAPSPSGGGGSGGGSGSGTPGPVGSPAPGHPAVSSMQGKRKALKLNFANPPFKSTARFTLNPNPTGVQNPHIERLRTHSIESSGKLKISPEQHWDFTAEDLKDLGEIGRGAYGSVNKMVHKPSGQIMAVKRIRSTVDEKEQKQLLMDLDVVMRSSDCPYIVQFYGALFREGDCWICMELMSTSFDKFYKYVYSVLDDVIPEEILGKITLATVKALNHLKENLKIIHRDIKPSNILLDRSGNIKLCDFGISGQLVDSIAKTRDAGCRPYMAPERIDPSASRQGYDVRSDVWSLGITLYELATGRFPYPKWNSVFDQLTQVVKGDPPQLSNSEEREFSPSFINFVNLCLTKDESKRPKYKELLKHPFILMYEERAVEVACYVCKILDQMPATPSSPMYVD

[7] = molecular target: T3, CASK (Homo sapiens, UniProt O14936)
T3 construct: purchased Eurofins DiscoverX Corporation (KINOMEscan)

[8] = molecular target: VEGFR2 (Homo sapiens, UniProt P35968)
[9] = molecular target: T4, TIE2 (Homo sapiens, UniProt Q02763)
T4 construct: purchased Eurofins DiscoverX Corporation

[10] = molecular target: PRKCD (Homo sapiens, UniProt Q05655)
[11] = molecular target: ANKK1 (Homo sapiens, UniProt Q8NFD2)
[12] = molecular target: T5, HIPK3 (Homo sapiens, UniProt Q9H422)
T5 construct: purchased Eurofins DiscoverX Corporation

[13] = molecular target: CLK4 (Homo sapiens, UniProt Q9HAZ1)
Sequence of CLK4 (Q9HAZ1 whole entry): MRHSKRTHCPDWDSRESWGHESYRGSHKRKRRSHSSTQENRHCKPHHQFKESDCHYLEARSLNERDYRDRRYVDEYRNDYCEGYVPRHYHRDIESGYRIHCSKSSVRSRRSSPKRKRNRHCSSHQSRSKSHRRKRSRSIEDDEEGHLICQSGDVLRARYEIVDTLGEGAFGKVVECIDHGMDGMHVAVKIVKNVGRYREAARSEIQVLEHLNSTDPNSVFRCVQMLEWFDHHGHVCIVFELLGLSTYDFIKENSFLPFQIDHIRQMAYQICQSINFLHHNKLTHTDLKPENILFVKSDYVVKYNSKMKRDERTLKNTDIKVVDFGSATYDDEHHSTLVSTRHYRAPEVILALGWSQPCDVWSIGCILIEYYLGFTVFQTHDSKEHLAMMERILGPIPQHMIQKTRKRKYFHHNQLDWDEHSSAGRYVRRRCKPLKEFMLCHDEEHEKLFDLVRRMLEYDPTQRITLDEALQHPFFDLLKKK

[14] = molecular target: RPS6KA5(Kin.Dom.2-C-terminal) (Homo sapiens, UniProt O75582)
Sequence of RPS6KA5(Kin.Dom.2-C-terminal) (O75582 426-687 limits assumed): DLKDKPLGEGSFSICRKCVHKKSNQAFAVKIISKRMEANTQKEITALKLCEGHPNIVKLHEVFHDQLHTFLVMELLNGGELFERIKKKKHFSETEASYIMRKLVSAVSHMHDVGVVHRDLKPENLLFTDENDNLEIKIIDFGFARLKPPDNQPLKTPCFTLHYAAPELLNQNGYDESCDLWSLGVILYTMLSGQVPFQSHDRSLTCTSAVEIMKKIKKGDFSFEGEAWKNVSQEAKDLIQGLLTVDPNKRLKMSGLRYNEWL

[15] = molecular target: NLK (Homo sapiens, UniProt Q9UBE8)
[16] = molecular target: EPHB3 (Homo sapiens, UniProt P54753)
[17] = molecular target: PAK2 (Homo sapiens, UniProt Q13177)
[18] = molecular target: ARK5 (Homo sapiens, UniProt O60285)
[19] = molecular target: T6, JNK1 (Homo sapiens, UniProt P45983)
T6 construct: purchased Eurofins DiscoverX (KINOMEscan)

[20] = molecular target: PIP5K2C (Homo sapiens, UniProt Q8TBX8)
Sequence of PIP5K2C (Q8TBX8 whole entry): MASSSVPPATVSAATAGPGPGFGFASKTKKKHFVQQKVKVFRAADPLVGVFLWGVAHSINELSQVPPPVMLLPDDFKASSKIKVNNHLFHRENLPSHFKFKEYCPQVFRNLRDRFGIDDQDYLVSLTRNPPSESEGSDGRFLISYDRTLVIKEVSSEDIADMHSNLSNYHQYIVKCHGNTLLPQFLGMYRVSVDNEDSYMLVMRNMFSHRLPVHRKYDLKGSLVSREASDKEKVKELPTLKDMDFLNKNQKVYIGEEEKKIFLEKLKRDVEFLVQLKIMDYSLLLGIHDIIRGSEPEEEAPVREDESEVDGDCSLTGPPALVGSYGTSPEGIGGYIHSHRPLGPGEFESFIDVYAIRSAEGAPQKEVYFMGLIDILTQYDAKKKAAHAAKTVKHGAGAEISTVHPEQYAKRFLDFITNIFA

[21] = molecular target: T7, KIT(V559D+T670I) (Homo sapiens, UniProt P10721, T670I/V559D)
T7 construct: purchased Eurofins DiscoverX Corporation
T7 sequence (P10721 26-976 V559D/T670I): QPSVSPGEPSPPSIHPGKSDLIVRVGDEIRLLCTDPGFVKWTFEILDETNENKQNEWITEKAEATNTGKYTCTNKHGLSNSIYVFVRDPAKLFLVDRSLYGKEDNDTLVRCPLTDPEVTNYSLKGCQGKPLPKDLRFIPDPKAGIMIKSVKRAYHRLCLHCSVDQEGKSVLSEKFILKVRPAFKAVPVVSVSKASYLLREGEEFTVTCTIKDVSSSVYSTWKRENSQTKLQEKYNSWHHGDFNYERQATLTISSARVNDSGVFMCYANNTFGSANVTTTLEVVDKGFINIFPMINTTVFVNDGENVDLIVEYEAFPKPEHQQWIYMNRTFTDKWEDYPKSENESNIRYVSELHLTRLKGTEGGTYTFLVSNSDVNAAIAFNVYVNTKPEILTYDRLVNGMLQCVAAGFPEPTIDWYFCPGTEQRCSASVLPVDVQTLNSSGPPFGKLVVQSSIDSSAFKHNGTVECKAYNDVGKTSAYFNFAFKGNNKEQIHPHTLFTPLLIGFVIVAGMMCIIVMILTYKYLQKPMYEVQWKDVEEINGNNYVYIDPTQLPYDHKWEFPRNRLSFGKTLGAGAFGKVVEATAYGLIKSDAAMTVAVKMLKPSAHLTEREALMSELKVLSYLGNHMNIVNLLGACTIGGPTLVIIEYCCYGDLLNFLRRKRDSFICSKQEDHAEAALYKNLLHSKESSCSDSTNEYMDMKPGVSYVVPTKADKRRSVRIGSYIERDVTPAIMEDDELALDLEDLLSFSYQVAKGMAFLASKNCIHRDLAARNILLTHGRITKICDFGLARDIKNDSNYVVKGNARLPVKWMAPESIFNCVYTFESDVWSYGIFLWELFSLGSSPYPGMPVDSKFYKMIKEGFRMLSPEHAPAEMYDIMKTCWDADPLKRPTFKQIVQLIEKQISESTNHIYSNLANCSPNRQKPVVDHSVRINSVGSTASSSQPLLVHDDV

[22] = molecular target: T8, MYLK2 (Homo sapiens, UniProt Q9H1R3)
T8 construct: purchased Eurofins DiscoverX Corporation

[23] = molecular target: T9, DYRK2 (Homo sapiens, UniProt Q92630)
T9 construct: purchased Eurofins DiscoverX Corporation
T9 sequence (Q92630 whole entry): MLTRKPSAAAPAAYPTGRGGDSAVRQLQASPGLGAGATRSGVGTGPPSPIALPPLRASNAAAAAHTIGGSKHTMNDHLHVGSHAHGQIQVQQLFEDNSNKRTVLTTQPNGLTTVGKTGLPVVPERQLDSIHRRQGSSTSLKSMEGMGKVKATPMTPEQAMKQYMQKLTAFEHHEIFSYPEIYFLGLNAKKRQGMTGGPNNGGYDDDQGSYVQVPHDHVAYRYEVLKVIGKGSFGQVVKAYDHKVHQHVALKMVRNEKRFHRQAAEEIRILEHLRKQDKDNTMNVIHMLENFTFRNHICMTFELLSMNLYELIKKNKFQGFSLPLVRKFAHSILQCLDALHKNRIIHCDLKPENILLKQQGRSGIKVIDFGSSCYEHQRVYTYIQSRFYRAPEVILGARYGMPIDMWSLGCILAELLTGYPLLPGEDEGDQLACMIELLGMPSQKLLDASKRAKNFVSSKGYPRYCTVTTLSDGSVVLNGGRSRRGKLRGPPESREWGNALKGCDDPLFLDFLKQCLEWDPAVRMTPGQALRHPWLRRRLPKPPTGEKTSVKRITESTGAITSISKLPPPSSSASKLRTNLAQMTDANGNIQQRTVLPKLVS

[24] = tested on: FLT3(ITD+F691L)
[25] = molecular target: T10, MKNK1 (Homo sapiens, UniProt Q9BUB5)
T10 construct: purchased Eurofins DiscoverX Corporation

[26] = molecular target: ACVR2B (Homo sapiens, UniProt Q13705)
[27] = molecular target: T11, NDR2 (Homo sapiens, UniProt Q9Y2H1)
T11 construct: purchased Eurofins DiscoverX Corporation

[28] = molecular target: PCTK1 (Homo sapiens, UniProt Q00536)
[29] = molecular target: STK16 (Homo sapiens, UniProt O75716)
[30] = molecular target: T12, MAPKAPK5 (Homo sapiens, UniProt Q8IW41)
T12 construct: purchased Eurofins DiscoverX Corporation

[31] = molecular target: T13, MLK2 (Homo sapiens, UniProt Q02779)
T13 construct: purchased Eurofins DiscoverX Corporation

[32] = molecular target: T14, ABL2 (Homo sapiens, UniProt P42684)
T14 construct: purchased Eurofins DiscoverX Corporation

[33] = molecular target: T15, LCK (Homo sapiens, UniProt P06239)
T15 construct: purchased Eurofins DiscoverX Corporation

[34] = molecular target: EIF2AK1 (Homo sapiens, UniProt Q9BQI3)
Sequence of EIF2AK1 (Q9BQI3 whole entry): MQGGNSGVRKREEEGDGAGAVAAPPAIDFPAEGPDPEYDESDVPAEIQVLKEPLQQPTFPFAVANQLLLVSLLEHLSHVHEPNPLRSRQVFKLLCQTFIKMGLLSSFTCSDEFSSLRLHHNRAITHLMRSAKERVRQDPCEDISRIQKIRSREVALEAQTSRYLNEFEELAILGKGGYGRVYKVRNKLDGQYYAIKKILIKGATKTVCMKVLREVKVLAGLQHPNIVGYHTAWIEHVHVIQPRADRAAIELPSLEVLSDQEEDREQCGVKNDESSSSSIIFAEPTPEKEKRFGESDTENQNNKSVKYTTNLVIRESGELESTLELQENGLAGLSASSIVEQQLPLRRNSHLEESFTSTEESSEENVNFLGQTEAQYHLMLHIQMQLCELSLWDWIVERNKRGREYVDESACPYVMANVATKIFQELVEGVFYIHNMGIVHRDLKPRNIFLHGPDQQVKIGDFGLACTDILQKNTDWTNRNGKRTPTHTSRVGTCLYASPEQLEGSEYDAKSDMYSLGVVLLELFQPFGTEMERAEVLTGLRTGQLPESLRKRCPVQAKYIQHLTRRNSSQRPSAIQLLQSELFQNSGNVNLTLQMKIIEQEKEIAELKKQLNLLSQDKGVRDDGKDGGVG

[35] = molecular target: EGFR(L858R) (Homo sapiens, UniProt P00533, L858R)
[36] = molecular target: T16, TGFBR2 (Homo sapiens, UniProt P37173)
T16 construct: purchased Eurofins DiscoverX Corporation

[37] = molecular target: T17, CSNK1G2 (Homo sapiens, UniProt P78368)
T17 construct: purchased Eurofins DiscoverX Corporation

[38] = molecular target: EGFR(T790M) (Homo sapiens, UniProt P00533, T790M)
[39] = molecular target: T18, CSNK1D (Homo sapiens, UniProt P48730)
T18 construct: purchased Eurofins DiscoverX Corporation
T18 sequence (P48730 whole entry): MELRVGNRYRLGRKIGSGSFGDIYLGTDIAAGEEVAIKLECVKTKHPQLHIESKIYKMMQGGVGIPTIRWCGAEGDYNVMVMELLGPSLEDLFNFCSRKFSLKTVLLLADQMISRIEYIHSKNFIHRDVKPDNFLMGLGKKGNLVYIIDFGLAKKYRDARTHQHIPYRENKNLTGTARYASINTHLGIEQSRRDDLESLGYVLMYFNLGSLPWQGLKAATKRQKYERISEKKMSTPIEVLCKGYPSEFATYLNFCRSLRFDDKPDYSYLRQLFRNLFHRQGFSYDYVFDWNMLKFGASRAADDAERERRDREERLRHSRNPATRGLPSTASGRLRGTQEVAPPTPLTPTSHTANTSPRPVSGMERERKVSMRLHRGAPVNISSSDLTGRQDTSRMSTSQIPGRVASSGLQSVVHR

[40] = molecular target: T19, LTK (Homo sapiens, UniProt P29376)
T19 construct: purchased Eurofins DiscoverX Corporation

[41] = molecular target: STK36 (Homo sapiens, UniProt Q9NRP7)
[42] = molecular target: TYK2(JH2domain-pseudokinase) (Homo sapiens, UniProt P29597)
Sequence of TYK2(JH2domain-pseudokinase) (P29597 589-875 limits assumed): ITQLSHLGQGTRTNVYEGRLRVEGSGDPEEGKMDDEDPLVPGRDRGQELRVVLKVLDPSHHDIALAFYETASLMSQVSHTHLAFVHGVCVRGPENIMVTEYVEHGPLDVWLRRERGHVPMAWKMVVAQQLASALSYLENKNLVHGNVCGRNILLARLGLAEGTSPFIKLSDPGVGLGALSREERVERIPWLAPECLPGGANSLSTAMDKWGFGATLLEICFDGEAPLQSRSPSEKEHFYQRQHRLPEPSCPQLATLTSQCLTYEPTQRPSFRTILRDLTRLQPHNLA

[43] = molecular target: WNK3 (Homo sapiens, UniProt Q9BYP7)

Sequence of VRK2 (Q86Y07 whole entry): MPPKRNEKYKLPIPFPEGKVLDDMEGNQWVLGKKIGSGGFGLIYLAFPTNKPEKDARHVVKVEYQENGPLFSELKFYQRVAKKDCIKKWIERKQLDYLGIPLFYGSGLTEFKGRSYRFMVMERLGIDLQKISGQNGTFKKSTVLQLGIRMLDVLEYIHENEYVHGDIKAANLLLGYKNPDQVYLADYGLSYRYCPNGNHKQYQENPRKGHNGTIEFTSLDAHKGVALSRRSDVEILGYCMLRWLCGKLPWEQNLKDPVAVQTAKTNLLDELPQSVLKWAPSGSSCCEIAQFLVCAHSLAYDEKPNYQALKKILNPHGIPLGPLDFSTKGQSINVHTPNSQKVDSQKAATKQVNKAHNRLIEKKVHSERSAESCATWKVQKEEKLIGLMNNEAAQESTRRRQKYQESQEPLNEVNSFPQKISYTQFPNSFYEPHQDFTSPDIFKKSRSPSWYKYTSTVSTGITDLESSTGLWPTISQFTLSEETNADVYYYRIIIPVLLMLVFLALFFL

**Q.** What does the source list for C=CC(=O)Nc1ccc(OC)c(Nc2cc(-c3[nH]c(CC)nc3-c3cccc(NC(=O)c4cccc5c4NC(=O)c4ccccc4N5)c3)ccn2)c1 [Compound 4]?
**A.** POC [1]: 28% of control; POC [2]: 100% of control; POC [3]: 100% of control; POC [4]: 98% of control; POC [5]: 100% of control; POC [6]: 100% of control; POC [7]: 97% of control; POC [8]: 100% of control; POC [9]: 71% of control; POC [10]: 55% of control; POC [11]: 87% of control; POC [12]: 100% of control; POC [13]: 100% of control; POC [14]: 100% of control; POC [15]: 48% of control; POC [16]: 100% of control; POC [17]: 100% of control; POC [18]: 100% of control; POC [19]: 85% of control; POC [20]: 66% of control; POC [21]: 95% of control; POC [22]: 84% of control; POC [23]: 75% of control; POC [24]: 79% of control; POC [25]: 100% of control; POC [26]: 72% of control; POC [27]: 77% of control; POC [28]: 100% of control; POC [29]: 100% of control; POC [30]: 100% of control; POC [31]: 97% of control; POC [32]: 92% of control; POC [33]: 7.7% of control; POC [34]: 75% of control; POC [35]: 5% of control; POC [36]: 75% of control; POC [37]: 91% of control; POC [38]: 12% of control; POC [39]: 87% of control; POC [40]: 48% of control; POC [41]: 30% of control; POC [42]: 100% of control; POC [43]: 78% of control
